Assay [1] addresses T1, (+)-limonene synthase [(+)-LS] (Citrus sinensis, UniProt A0A1C9J6A7). In words: X-ray crystal structure. Type of assay: biochemical.
The target of assay [2] is T1, (+)-limonene synthase [(+)-LS]. In words: X-ray crystal structure. It counts as biochemical. This is another data set of the same source.

Read-outs that look alike come from different tables or passages of the source.

T1 sequence (A0A1C9J6A7 53-607): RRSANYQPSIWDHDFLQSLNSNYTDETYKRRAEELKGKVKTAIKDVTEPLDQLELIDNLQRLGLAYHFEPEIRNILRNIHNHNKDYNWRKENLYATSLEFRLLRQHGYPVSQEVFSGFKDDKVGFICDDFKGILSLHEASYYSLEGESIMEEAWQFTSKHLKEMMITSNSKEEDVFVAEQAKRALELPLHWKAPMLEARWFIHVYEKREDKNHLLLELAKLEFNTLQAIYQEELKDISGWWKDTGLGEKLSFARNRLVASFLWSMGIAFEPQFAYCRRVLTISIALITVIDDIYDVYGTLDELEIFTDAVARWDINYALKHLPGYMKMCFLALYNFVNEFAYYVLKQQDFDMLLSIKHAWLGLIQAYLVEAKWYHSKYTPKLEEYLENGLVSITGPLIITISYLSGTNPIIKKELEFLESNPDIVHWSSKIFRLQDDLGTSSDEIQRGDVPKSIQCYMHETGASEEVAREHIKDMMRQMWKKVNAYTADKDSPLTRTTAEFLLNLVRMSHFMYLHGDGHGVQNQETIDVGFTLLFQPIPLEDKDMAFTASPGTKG

The compound `CC(C)=CCC/C(C)=C(/F)COP(=O)(O)OP(=O)(O)O` [FNPP, 2-fluoroneryl diphosphate] came in with an inhibitory constant (Ki) in assay [1] of 39.5 ± 5.2 µM.

For the compound `CC(C)=CCC/C(C)=C(\F)COP(=O)(O)OP(=O)(O)O` [FGPP, 2-fluorogeranyl diphosphate], the inhibition constant (Ki) in assay [2] stood at 2.4 ± 0.5 µM.

For orientation: Ki means the dissociation constant of the complex between target and ligand, obtained from inhibition or displacement. A low value points to tighter binding.

For the origin of these results see PMC5642273 (Biochemistry, 2017).
